Reference: patent publication US12180198B2, “Ribocil C antibiotics effective for Gram-negative pathogens” (THE BOARD OF TRUSTEES OF THE UNIVERSITY OF ILLINOIS, priority 2018, dated 2024)
In brackets after ≈: the same amount, converted by molar mass.

Experiments:
[1] = molecular target: E. coli FabI (Escherichia coli, UniProt P0AEK4); experiment: In vitro FabI inhibition assay; format: biochemical; conditions: 20 nM enzyme
Experimental: Expression and purification of E. coli FabI. E. coli BL21 (DE3) pLysS (Novagen) were transformed with pET15-ecFabI. Overnight culture (10 mL) in LB supplemented with 50 μg/mL ampicillin from single colony was diluted into 1 L LB+50 μg/mL ampicillin. Cells were grown at 37° C., 250 rpm until OD600 reached 0.8. Culture was cooled to 18° C. and induced with 0.5 mM IPTG for 18 h at 18° C. Cells were harvested by centrifugation (5,000×g, 10 min, 4° C.). Cell pellets were flash frozen and store at −20° C. pending purification. Frozen cell pellets were thawed on ice and resuspended (5 mL per gram wet pellet, typically 20-30 mL) with 0.5% CHAPS, 1 mM PMSF, 1 μg/mL leupeptin, 1 μg/mL pepstatin A, and 2 μg/mL aprotinin in binding buffer [20 mM Tris (pH 7.9), 500 mM NaCl, 5 mM imidazole]. Cells were lysed by sonication on ice (30%, 10 s pulse, 20 s rest, 5 min total). Lysate was clarified by centrifugation (35,000×g, 1 h, 4° C.) and filtration through 0.2 μm syringe filter. Lysate was incubated with 5 mL Co-NTA agarose (HisPur cobalt resin, Thermo-Fisher Scientific Cat #89965, pre-equilibrated with binding buffer) for 30 min at 4° C. with gentle rocking. Agarose-containing lysate was transferred to column and flow through discarded. Column was washed with 2 column volumes of binding buffer followed by 10 column volumes of wash buffer [20 mM Tris (pH 7.9), 500 mM NaCl, 60 mM imidazole]. Protein was eluted with 15 mL elution buffer [20 mM Tris (pH 7.9), 500 mM NaCl, 300 mM imidazole]. […] Protein concentration was determined by BCA assay (ThermoFisher Cat #23227).
In vitro FabI inhibition assay. […] Plate was placed in plate-reader (SpectraMax 190, Molecular Devices) under temperature control (25° C.), and temperature was allowed to equilibrate. […] After shaking for 5 s, reaction progress was monitored by absorbance at 340 nm every 15 s for 90 min. Linear portion of reaction progress curve was fit using plate-reader software (SoftMax Pro 7.0). Percent activity was calculated relative to DMSO-only and no-enzyme controls in each plate. […]

[2] = system: Gram-negative ESKAPE pathogens and E. coli; experiment: MIC, micro-dilution broth method (text summary); format: cell-based; conditions: Gram-negatives with intact outer membranes
Experimental: FIG. 2. Antimicrobial activity of Debio-1452 and derivatives. MIC values were determined using the micro-dilution broth method as outlined by the Clinical and Laboratory Standards Institute (clsi.org/). All experiments were performed in biological triplicate.
(§1) Antimicrobial susceptibility tests. Susceptibility testing was performed in biological triplicate, using the micro-dilution broth method as outlined by the Clinical and Laboratory Standards Institute. Bacteria were cultured with cation-adjusted Muller-Hinton broth (Sigma-Aldrich, Cat #90922) in round-bottom 96-well plates (Corning, Cat #3788). Human serum (pooled gender, 0.2 μm filtered) was purchased from BioIVT (Hicksville, NY).

[3] = system: E. coli MG1655; experiment: MIC, micro-dilution broth method; format: cell-based; conditions: Escherichia coli; E. coli MG1655; read-out: MIC
Experimental: (§2) Compounds were evaluated against a panel of Gram-positive and Gram-negative organisms. MIC values were determined using the micro-dilution broth method as outlined by the Clinical and Laboratory Standards Institute (clsi.org/) and are listed in […]. All experiments were performed in biological triplicate.
as §1

[4] = system: S. aureus ATCC 29213; experiment: MIC, micro-dilution broth method; format: cell-based; conditions: Staphylococcus aureus, ATCC29213, S. aureus ATCC 29213; read-out: MIC
Experimental: as §2, §1

[5] = system: A. baumannii W41979; experiment: MIC, micro-dilution broth method; format: cell-based; conditions: Acinetobacter baumannii; A. baumannii W41979; read-out: MIC
Experimental: as §2, §1

[6] = system: E. coli BAA-2340; experiment: MIC, micro-dilution broth method; format: cell-based; conditions: Escherichia coli, BAA2340; E. coli BAA-2340; read-out: MIC
Experimental: as §2, §1

[7] = system: E. cloacae ATCC 29893; experiment: MIC, micro-dilution broth method; format: cell-based; conditions: Enterobacter cloacae, ATCC29893; E. cloacae ATCC 29893; read-out: MIC
Experimental: as §2, §1

[8] = system: E. coli ΔrfaC JW3596; experiment: MIC, micro-dilution broth method; format: cell-based; conditions: Escherichia coli
Experimental: as §2, §1

[9] = system: E. coli ΔtolC JW5503; experiment: MIC, micro-dilution broth method; format: cell-based; conditions: Escherichia coli
Experimental: as §2, §1

[10] = system: P. aeruginosa PA01; experiment: MIC, micro-dilution broth method; format: cell-based; conditions: Pseudomonas aeruginosa; P. aeruginosa PA01; read-out: MIC
Experimental: as §2, §1

[11] = system: K. pneumoniae S47889; experiment: MIC, micro-dilution broth method; format: cell-based; conditions: Klebsiella pneumoniae; K. pneumoniae S47889; read-out: MIC
Experimental: as §2, §1

[12] = system: E. coli AR-0493; experiment: MIC, micro-dilution broth method; format: cell-based; conditions: Escherichia coli, AR0493; E. coli AR-0493; read-out: MIC
Experimental: as §2, §1

E. coli FabI, sequence (P0AEK4 whole entry): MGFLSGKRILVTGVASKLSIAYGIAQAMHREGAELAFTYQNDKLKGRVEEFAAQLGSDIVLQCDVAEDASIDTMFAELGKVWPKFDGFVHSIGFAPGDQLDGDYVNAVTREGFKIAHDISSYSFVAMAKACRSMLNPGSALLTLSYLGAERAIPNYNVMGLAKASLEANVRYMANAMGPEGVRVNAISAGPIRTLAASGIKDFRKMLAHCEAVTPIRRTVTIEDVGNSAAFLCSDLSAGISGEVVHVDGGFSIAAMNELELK

## Cc1c(CN(C)C(=O)/C=C/c2cnc3c(c2)CC(NC(=O)OC(C)(C)C)C(=O)N3)oc2ccccc12 (stereo not drawn) [compound 8, tert-butyl(E)-(6-(3-(methyl((3-methylbenzofuran-2-yl)methyl)amino)-3-oxoprop-1-en-1-yl)-2-oxo-1,2,3,4-tetrahydro-1,8-naphthyridin-3-yl)carbamate]
[1]
  inhibition of E. coli FabI in vitro (in words): potent FabI inhibitors
[2]
  activity (in words): no activity
[3]
  MIC: > 32 µg/mL
[4]
  MIC: 0.016 µg/mL (≈ 0.0326 µM)
[5]
  MIC: > 32 µg/mL
[6]
  MIC: > 32 µg/mL
[7]
  MIC: > 32 µg/mL
[8]
  MIC: 0.25 µg/mL (≈ 0.51 µM)
[9]
  MIC: 0.125 µg/mL (≈ 0.255 µM)
[10]
  MIC: > 32 µg/mL
[11]
  MIC: > 32 µg/mL
[12]
  MIC: > 32 µg/mL
